Laboratory results reported in patent publication US11434222B2, “MAGL inhibitors” (H. LUNDBECK A/S, priority 2020, dated 2022).

Biological target: T1, MAGL (Homo sapiens, UniProt Q99685)
T1 construct: PC3 human cell membrane proteomes; endogenous in cells; host or cells: PC3 human cells (membrane proteome)
T1 sequence (Q99685 1-303): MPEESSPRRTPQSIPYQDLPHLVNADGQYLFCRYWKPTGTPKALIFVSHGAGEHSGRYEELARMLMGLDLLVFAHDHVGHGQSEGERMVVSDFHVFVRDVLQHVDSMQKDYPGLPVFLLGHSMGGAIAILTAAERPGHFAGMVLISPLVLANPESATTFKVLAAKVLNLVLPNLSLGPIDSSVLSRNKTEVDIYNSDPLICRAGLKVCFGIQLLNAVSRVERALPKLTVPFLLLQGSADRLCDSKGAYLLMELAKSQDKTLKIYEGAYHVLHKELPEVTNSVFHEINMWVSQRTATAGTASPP
Assay: In vitro competitive activity-based protein profiling (PC3 human cell membrane proteomes)
Type: biochemical
Conditions: not given
Method: PC3 human cell membrane proteomes (50 µL, 2.0 mg/mL total protein concentration) were preincubated with varying concentrations of inhibitors at 37° C. After 30 min, the ABPP probe JW912-Bodipy (1.0 µL, 50 µM in DMSO) was added and the mixture was incubated for 30 min at room temperature. Reactions were quenched with SDS loading buffer (15 μL-4×) and run on SDS-PAGE. Following gel imaging, serine hydrolase activity was determined by measuring fluorescent intensity of gel bands corresponding to MAGL using ImageJ 1.43u software. Intensities were converted to percent enzyme activity by normalizing to DMSO controls. IC50 values were determined by fitting percent enzyme activities to a non-linear regression, 4-parameter, sigmoidal dose response function in Prism GraphPad.

MAGL % inh. 1 µM (human PC3) [%]	SMILES
100	CN(C(=O)C1CC12CCN(C(=O)OC(C(F)(F)F)C(F)(F)F)CC2)c1ccccn1 (single isomer, unassigned) [Example 46, 1,1,1,3,3,3-hexafluoropropan-2-yl (R or S)-1-(methyl(pyridin-2-yl)carbamoyl)-6-azaspiro[2.5]octane-6-carboxylate]
100	O=C(Nc1ccccn1)C1CC12CCN(C(=O)OC(C(F)(F)F)C(F)(F)F)CC2 (single isomer, unassigned) [Example 49, 1,1,1,3,3,3-hexafluoropropan-2-yl (R or S)-1-(pyridin-2-ylcarbamoyl)-6-azaspiro[2.5]octane-6-carboxylate]
100	O=C(OC(C(F)(F)F)C(F)(F)F)N1CCC2(CC1)CC2C(=O)N1CCn2cc(C(F)(F)F)nc2C1 (single isomer, unassigned) [Example 52, 1,1,1,3,3,3-hexafluoropropan-2-yl (R or S)-1-(2-(trifluoromethyl)-5,6,7,8-tetrahydroimidazo[1,2-a]pyrazine-7-carbonyl)-6-azaspiro[2.5]octane-6-carboxylate]
100	O=C(Nc1cnccn1)C1CC12CCN(C(=O)OC(C(F)(F)F)C(F)(F)F)CC2 (single isomer, unassigned) [Example 55, 1,1,1,3,3,3-hexafluoropropan-2-yl (R or S)-1-(pyrazin-2-ylcarbamoyl)-6-azaspiro[2.5]octane-6-carboxylate]
100	O=C(OC(C(F)(F)F)C(F)(F)F)N1CCC2(CC1)CC2C(=O)N1CCc2cnc(C(F)(F)F)nc2C1 (single isomer, unassigned) [Example 58, 1,1,1,3,3,3-hexafluoropropan-2-yl (R or S)-1-(2-(trifluoromethyl)-5,6,7,8-tetrahydropyrido[3,4-d]pyrimidine-7-carbonyl)-6-azaspiro[2.5]octane-6-carboxylate]
100	O=C(OC(C(F)(F)F)C(F)(F)F)N1CCC2(CC1)CC2C(=O)N1CCc2nc(C3CC3)ncc2C1 (single isomer, unassigned) [Example 64, 1,1,1,3,3,3-hexafluoropropan-2-yl (R or S)-1-(2-cyclopropyl-5,6,7,8-tetrahydropyrido[4,3-d]pyrimidine-6-carbonyl)-6-azaspiro[2.5]octane-6-carboxylate]
100	Cc1ncccc1NC(=O)C1CC12CCN(C(=O)OC(C(F)(F)F)C(F)(F)F)CC2 (single isomer, unassigned) [Example 69, 1,1,1,3,3,3-hexafluoropropan-2-yl (R or S)-1-((2-methylpyridin-3-yl)carbamoyl)-6-azaspiro[2.5]octane-6-carboxylate]
75	Cc1ncccc1NC(=O)C1CC12CCN(C(=O)OC(C(F)(F)F)C(F)(F)F)CC2 (single isomer, unassigned) [Example 70, 1,1,1,3,3,3-hexafluoropropan-2-yl (R or S)-1-((2-methylpyridin-3-yl)carbamoyl)-6-azaspiro[2.5]octane-6-carboxylate]
100	O=C(Nc1cccc(C(F)(F)F)n1)C1CC12CCN(C(=O)OC(C(F)(F)F)C(F)(F)F)CC2 (single isomer, unassigned) [Example 73, 1,1,1,3,3,3-hexafluoropropan-2-yl (R or S)-1-((6-(trifluoromethyl)pyridin-2-yl)carbamoyl)-6-azaspiro[2.5]octane-6-carboxylate]
100	O=C(Nc1cccnc1C(F)(F)F)C1CC12CCN(C(=O)OC(C(F)(F)F)C(F)(F)F)CC2 (single isomer, unassigned) [Example 85, 1,1,1,3,3,3-hexafluoropropan-2-yl (R or S)-1-((2-(trifluoromethyl)pyridin-3-yl)carbamoyl)-6-azaspiro[2.5]octane-6-carboxylate]
100	O=C(NCc1cccnc1)C1CC12CCN(C(=O)OC(C(F)(F)F)C(F)(F)F)CC2 (single isomer, unassigned) [Example 88, 1,1,1,3,3,3-hexafluoropropan-2-yl (R or S)-1-((pyridin-3-ylmethyl)carbamoyl)-6-azaspiro[2.5]octane-6-carboxylate]
100	O=C(NC(=O)C1CC12CCN(C(=O)OC(C(F)(F)F)C(F)(F)F)CC2)c1ccccc1 (single isomer, unassigned) [Example 94, 1,1,1,3,3,3-hexafluoropropan-2-yl (R or S)-1-(benzoylcarbamoyl)-6-azaspiro[2.5]octane-6-carboxylate]

SMILES	MAGL % inh. 1 µM (human PC3) [%]
O=C(OC(C(F)(F)F)C(F)(F)F)N1CCC2(CC1)CC2C(=O)N1CCc2ncncc2C1 (single isomer, unassigned) [Example 61, 1,1,1,3,3,3-hexafluoropropan-2-yl (R or S)-1-(5,6,7,8-tetrahydropyrido[4,3-d]pyrimidine-6-carbonyl)-6-azaspiro[2.5]octane-6-carboxylate]	75
O=C(Nc1cncc(Cl)c1)C1CC12CCN(C(=O)OC(C(F)(F)F)C(F)(F)F)CC2 (single isomer, unassigned) [Example 67, 1,1,1,3,3,3-hexafluoropropan-2-yl (R or S)-1-((5-chloropyridin-3-yl)carbamoyl)-6-azaspiro[2.5]octane-6-carboxylate]	100
O=C(Nc1ccc(C(F)(F)F)nc1)C1CC12CCN(C(=O)OC(C(F)(F)F)C(F)(F)F)CC2 (single isomer, unassigned) [Example 79, 1,1,1,3,3,3-hexafluoropropan-2-yl (R or S)-1-((6-(trifluoromethyl)pyridin-3-yl)carbamoyl)-6-azaspiro[2.5]octane-6-carboxylate]	50
Cc1ccc(NC(=O)C2CC23CCN(C(=O)OC(C(F)(F)F)C(F)(F)F)CC3)cn1 (single isomer, unassigned) [Example 82, 1,1,1,3,3,3-hexafluoropropan-2-yl (R or S)-1-((6-methylpyridin-3-yl)carbamoyl)-6-azaspiro[2.5]octane-6-carboxylate]	100
O=C(NC(=O)C1CC12CCN(C(=O)OC(C(F)(F)F)C(F)(F)F)CC2)C1CCCCC1 (single isomer, unassigned) [Example 91, 1,1,1,3,3,3-hexafluoropropan-2-yl (R or S)-1-((cyclohexanecarbonyl)carbamoyl)-6-azaspiro[2.5]octane-6-carboxylate]	100
O=C(Nc1cncnc1)C1CC12CCN(C(=O)OC(C(F)(F)F)C(F)(F)F)CC2 (single isomer, unassigned) [Example 97, 1,1,1,3,3,3-hexafluoropropan-2-yl (R or S)-1-(pyrimidin-5-ylcarbamoyl)-6-azaspiro[2.5]octane-6-carboxylate]	90
O=C(Nc1cnc(C(F)(F)F)nc1)C1CC12CCN(C(=O)OC(C(F)(F)F)C(F)(F)F)CC2 (single isomer, unassigned) [Example 100, 1,1,1,3,3,3-hexafluoropropan-2-yl (R or S)-1-((2-(trifluoromethyl)pyrimidin-5-yl)carbamoyl)-6-azaspiro[2.5]octane-6-carboxylate]	75

Tested on: not listed separately
Assay: Kinetic solubility in PBS
Type: physicochemical
Conditions: aqueous buffer, kinetic from dmso stock, PBS pH 2.0, RT, read-out: pH 2 Solubility (kinetic)
Method: The kinetic solubility of test articles was determined in PBS at pH 2.0 and pH 7.4 in duplicate. A stock solution of test compound in DMSO (10 mM) was incubated at RT for 2 hours with shaking at 1,100 RPM. The sample was then filtered using a vacuum manifold, diluted, and analyzed by LC-MS/MS. Chromatographic conditions: Phenomenex Synergi 4μ Hydro-PR 80A column (2.0×30 mm) coupled with pre-guard column; mobile phase=0.1% formic acid in acetonitrile and 0.1% formic acid in water; flowrate=0.65 mL/min; column temperature=40° C.; injection volume: 3 μL.
Mass conditions: Turbo spray ion source; ESI ionization model; MRM scan type; Collison gas=6 L/min; Curtain gas=30 L/min; Nebulize gas=50 L/min; Auxiliary gas=50 L/min; Temperature=500 degrees C.; Ion spray voltage=+5500 v (positive MRM).
The filtered solution was analyzed and quantified against a standard of known concentration in DMSO using UPLC coupled with mass spectral peak identification and quantitation. Solubility values of the test articles were calculated using Microsoft Excel as follows (DF is the dilution factor): […]

SMILES	solubility kinetic at 2 h [µM]
O=C(NC(=O)C1CC12CCN(C(=O)OC(C(F)(F)F)C(F)(F)F)CC2)C1CCCCC1 (single isomer, unassigned) [Example 90, 1,1,1,3,3,3-hexafluoropropan-2-yl (R or S)-1-((cyclohexanecarbonyl)carbamoyl)-6-azaspiro[2.5]octane-6-carboxylate]	33

Same assay, conditions: aqueous buffer, kinetic from dmso stock, PBS pH 7.4, RT, read-out: pH 7.4 Solubility (kinetic)

SMILES	solubility kinetic at 2 h [µM]
O=C(Nc1ccnc(C(F)(F)F)n1)[C@H]1CC12CCN(C(=O)OC(C(F)(F)F)C(F)(F)F)CC2 (single isomer, unassigned) [Example 17]	0.07
O=C(Nc1cncc(Cl)c1)C1CC12CCN(C(=O)OC(C(F)(F)F)C(F)(F)F)CC2 (single isomer, unassigned) [Example 66, 1,1,1,3,3,3-hexafluoropropan-2-yl (R or S)-1-((5-chloropyridin-3-yl)carbamoyl)-6-azaspiro[2.5]octane-6-carboxylate]	8.74
